According to US8802895B2, “Amide derivatives of benzene-sulfonanilide, pharmaceutical composition thereof and method for cancer treatment using the same” (Cleveland State University, priority 2010, dated 2014):

How the values were obtained:
Assay type in all cases: cell-based
[1] = tested on: HOP-92; assay: NCIDTP 60 cancer cell lines screening, Non-Small Cell Lung Cancer panel
[2] = tested on: OVCAR-5; assay: NCIDTP 60 cancer cell lines screening, Ovarian Cancer panel
[3] = tested on: SK-MEL-5; assay: NCIDTP 60 cancer cell lines screening, Melanoma panel
[4] = tested on: SW-620; assay: NCIDTP 60 cancer cell lines screening, Colon Cancer panel
[5] = tested on: RPMI-8226; assay: NCIDTP 60 cancer cell lines screening, Leukemia panel
[6] = tested on: A549/ATCC; assay: NCIDTP 60 cancer cell lines screening, Non-Small Cell Lung Cancer panel
[7] = tested on: UO-31; assay: NCIDTP 60 cancer cell lines screening, Renal Cancer panel
[8] = tested on: SF-539; assay: NCIDTP 60 cancer cell lines screening, CNS Cancer panel
[9] = tested on: PC-3; assay: NCIDTP 60 cancer cell lines screening, Prostate Cancer panel

## Cc1ccc(C)c(COc2cc(NC(=O)c3ccc4c(c3)OCO4)ccc2N(C)S(C)(=O)=O)c1 [Compound #10, Benzo[1,3]dioxole-5-carboxylic acid [3-(2,5-dimethyl-benzyloxy)-4-(methanesulfonyl-methyl-amino)-phenyl]-amide]
[1]; HOP-92
  TGI: >1.00E−4 Molar
[1]; HOP-92, Log10 Concentration −4.0 Molar
  Percent Growth: 37%
[1]; HOP-92, Log10 Concentration −5.0 Molar
  Percent Growth: 39%
[1]; HOP-92, Log10 Concentration −6.0 Molar
  Percent Growth: 62%
[1]; HOP-92, Log10 Concentration −7.0 Molar
  Percent Growth: 62%
[1]; HOP-92, Log10 Concentration −8.0 Molar
  Percent Growth: 78%
[1]; Homo sapiens, HOP-92
  GI50: 32.2 nM
[1]; Homo sapiens, HOP-92, read-out: LC50
  CC50: > 100 µM
[2]; Homo sapiens, OVCAR-5
  GI50: 538 nM
[2]; Homo sapiens, OVCAR-5, read-out: LC50
  CC50: > 100 µM
[2]; OVCAR-5
  TGI: >1.00E−4 Molar
[2]; OVCAR-5, Log10 Concentration −4.0 Molar
  Percent Growth: 25%
[2]; OVCAR-5, Log10 Concentration −5.0 Molar
  Percent Growth: 33%
[2]; OVCAR-5, Log10 Concentration −6.0 Molar
  Percent Growth: 37%
[2]; OVCAR-5, Log10 Concentration −7.0 Molar
  Percent Growth: 85%
[2]; OVCAR-5, Log10 Concentration −8.0 Molar
  Percent Growth: 85%
[3]; Homo sapiens, SK-MEL-5
  GI50: 253 nM
[3]; Homo sapiens, SK-MEL-5, read-out: LC50
  CC50: 34.1 µM
[3]; SK-MEL-5
  TGI: 1.65E−6 Molar
[3]; SK-MEL-5, Log10 Concentration −4.0 Molar
  Percent Growth: −57%
[3]; SK-MEL-5, Log10 Concentration −5.0 Molar
  Percent Growth: −42%
[3]; SK-MEL-5, Log10 Concentration −6.0 Molar
  Percent Growth: 12%
[3]; SK-MEL-5, Log10 Concentration −7.0 Molar
  Percent Growth: 76%
[3]; SK-MEL-5, Log10 Concentration −8.0 Molar
  Percent Growth: 90%
[4]; Homo sapiens, SW-620
  GI50: 112 nM
[4]; Homo sapiens, SW-620, read-out: LC50
  CC50: > 100 µM
[4]; SW-620
  TGI: >1.00E−4 Molar
[4]; SW-620, Log10 Concentration −4.0 Molar
  Percent Growth: 16%
[4]; SW-620, Log10 Concentration −5.0 Molar
  Percent Growth: 21%
[4]; SW-620, Log10 Concentration −6.0 Molar
  Percent Growth: 19%
[4]; SW-620, Log10 Concentration −7.0 Molar
  Percent Growth: 52%
[4]; SW-620, Log10 Concentration −8.0 Molar
  Percent Growth: 92%
[5]; Homo sapiens, RPMI-8226
  GI50: 290 nM
[5]; Homo sapiens, RPMI-8226, read-out: LC50
  CC50: > 100 µM
[5]; RPMI-8226, Log10 Concentration −4.0 Molar
  Percent Growth: 6%
[5]; RPMI-8226, Log10 Concentration −5.0 Molar
  Percent Growth: −2%
[5]; RPMI-8226, Log10 Concentration −6.0 Molar
  Percent Growth: 14%
[5]; RPMI-8226, Log10 Concentration −7.0 Molar
  Percent Growth: 81%
[5]; RPMI-8226, Log10 Concentration −8.0 Molar
  Percent Growth: 93%
[6]; A549/ATCC
  TGI: 1.36E−5 Molar
[6]; A549/ATCC, Log10 Concentration −4.0 Molar
  Percent Growth: −29%
[6]; A549/ATCC, Log10 Concentration −5.0 Molar
  Percent Growth: 5%
[6]; A549/ATCC, Log10 Concentration −6.0 Molar
  Percent Growth: 12%
[6]; A549/ATCC, Log10 Concentration −7.0 Molar
  Percent Growth: 80%
[6]; A549/ATCC, Log10 Concentration −8.0 Molar
  Percent Growth: 97%
[6]; Homo sapiens, A549, read-out: LC50
  CC50: > 100 µM
[6]; Homo sapiens, A549/ATCC
  GI50: 278 nM
[7]; Homo sapiens, UO-31
  GI50: 395 nM
[7]; Homo sapiens, UO-31, read-out: LC50
  CC50: > 100 µM
[7]; UO-31
  TGI: >1.00E−4 Molar
[7]; UO-31, Log10 Concentration −4.0 Molar
  Percent Growth: 14%
[7]; UO-31, Log10 Concentration −5.0 Molar
  Percent Growth: 12%
[7]; UO-31, Log10 Concentration −6.0 Molar
  Percent Growth: 35%
[7]; UO-31, Log10 Concentration −7.0 Molar
  Percent Growth: 73%
[7]; UO-31, Log10 Concentration −8.0 Molar
  Percent Growth: 78%
[8]; Homo sapiens, SF-539
  GI50: 125 nM
[8]; Homo sapiens, SF-539, read-out: LC50
  CC50: > 100 µM
[8]; SF-539, Log10 Concentration −5.0 Molar
  Percent Growth: −10%
[8]; SF-539, Log10 Concentration −6.0 Molar
  Percent Growth: −10%
[8]; SF-539, Log10 Concentration −7.0 Molar
  Percent Growth: 56%
[8]; SF-539, Log10 Concentration −8.0 Molar
  Percent Growth: 91%
[9]; Homo sapiens, PC-3
  GI50: 67.7 nM
[9]; Homo sapiens, PC-3, read-out: LC50
  CC50: > 100 µM
[9]; PC-3
  TGI: >1.00E−4 Molar
[9]; PC-3, Log10 Concentration −4.0 Molar
  Percent Growth: 21%
[9]; PC-3, Log10 Concentration −5.0 Molar
  Percent Growth: 20%
[9]; PC-3, Log10 Concentration −6.0 Molar
  Percent Growth: 21%
